The record followed here is patent US20230120564A1, “PYRIDO[3,4-D]PYRIMIDINE DERIVATIVE AND THERAPEUTIC PHARMACEUTIC COMPOSITION COMPRISING SAME” (KOREA INSTITUTE OF SCIENCE AND TECHNOLOGY, priority 2020, published 2023).

The structures appear in SMILES notation. A value given as a limit tells only on which side of the number the result lay.

The target of test [1] is T1, GCK (Homo sapiens, UniProt Q12851).
T1 sequence (Q12851 1-820): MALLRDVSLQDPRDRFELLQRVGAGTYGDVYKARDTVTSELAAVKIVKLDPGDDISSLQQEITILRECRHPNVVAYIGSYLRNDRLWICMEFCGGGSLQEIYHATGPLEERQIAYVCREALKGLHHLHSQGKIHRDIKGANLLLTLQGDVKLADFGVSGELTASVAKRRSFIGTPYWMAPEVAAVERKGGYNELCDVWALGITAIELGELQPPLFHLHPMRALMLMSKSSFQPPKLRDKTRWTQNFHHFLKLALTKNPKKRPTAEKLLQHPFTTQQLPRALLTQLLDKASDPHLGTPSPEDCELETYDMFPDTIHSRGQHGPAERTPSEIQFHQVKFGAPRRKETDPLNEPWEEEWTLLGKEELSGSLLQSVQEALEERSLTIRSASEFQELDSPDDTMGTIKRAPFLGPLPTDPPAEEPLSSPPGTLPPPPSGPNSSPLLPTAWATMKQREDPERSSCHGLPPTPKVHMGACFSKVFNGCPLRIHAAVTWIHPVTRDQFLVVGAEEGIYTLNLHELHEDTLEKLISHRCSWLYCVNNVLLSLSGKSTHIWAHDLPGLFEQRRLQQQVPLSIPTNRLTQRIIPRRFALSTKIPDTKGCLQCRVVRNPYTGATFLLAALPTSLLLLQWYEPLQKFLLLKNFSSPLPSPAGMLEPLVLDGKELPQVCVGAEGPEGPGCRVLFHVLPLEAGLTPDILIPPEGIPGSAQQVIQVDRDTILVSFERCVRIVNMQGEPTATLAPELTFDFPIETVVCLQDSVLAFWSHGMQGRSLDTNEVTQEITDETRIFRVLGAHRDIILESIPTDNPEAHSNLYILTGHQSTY
Nature of the test: Kinase inhibitory activity, IC50. It counts as biochemical. The method, then:
The inhibitory activities of the compounds of the present invention against two kinases, GCK and ACK1, were measured, and the IC50 values thereof were calculated. As a control, the following compound GNF7 was used.

In test [2] the test system is OCI-AML3 (N-Ras Q61L). Description: Inhibition of cell proliferation (GI50). The following applies: Homo sapiens, OCI-AML-3; OCI-AML3 cell line; read-out: Proliferation inhibitory activity (GI50, μM) OCI-AML3 (N-Ras Q61L). Format: cell-based. As for the experimental part: (§1) The inhibitory activities of the compounds of the present invention against the proliferation of the mt-NRAS (G12D) Ba/F3 and […] (mt-NRAS) cell lines were measured and the GI50 values thereof were calculated.
Referring to the results in Table 2, it can be seen that the compound of the present invention has inhibitory activity against the proliferation of the human acute myeloid leukemia cell line (OCI-AML3) having the NRAS mutant gene, and the effect thereof is remarkable. Therefore, it can be seen that the compound of the present invention is particularly effective as a therapeutic agent for acute myeloid leukemia (AML).

Test [3] relates to Ba/F3 (N-Ras G12D). Nature of the test: Inhibition of cell proliferation (GI50). Format: cell-based. The following applies: Mus musculus, BaF3; mt-NRAS (G12D) Ba/F3 cell line; read-out: Proliferation inhibitory activity (GI50, μM) Ba/F3 (N-Ras G12D). The method, then: as §1
Test [4] deals with Ba/F3 (parental). Description: Inhibition of cell proliferation (GI50). It counts as cell-based. Particulars: Mus musculus, BaF3; Ba/F3 (parental) cell line; read-out: Proliferation inhibitory activity (GI50, μM) Ba/F3 (parental). The method, then: The inhibitory activities of the compounds of the present invention against the proliferation of the Ba/F3 (parental) cell line were measured and the GI50 values thereof were calculated.

Regarding `Cc1ccc(Nc2ncc3cc(-c4cc(NC(=O)c5cccc(C(F)(F)F)c5)ccc4C)ncc3n2)cn1` [Compound No. 4, N-(4-methyl-3-(2-((6-methylpyridin-3-yl)amino)pyrido[3,4-d]pyrimidin-6-yl)phenyl)-3-(trifluoromethyl)benzamide], the IC50 (as a rule, the concentration that inhibits the measured activity by half) in test [1] is 100 to 1000 nM. Further, the GI50 in test [2], in test [3] and in test [4] was < 0.5 µM in each case.
